Assays:
ETB receptors = assay: ETB receptor expression in tissues of hemorrhaged rats (western blot); assay type: in vivo, rat; conditions: for change in ETB receptor expression, abdominal aorta / change in ETB receptor expression, kidney medulla: compared to untreated hemorrhaged rats
Method: Induction of Hemorrhagic Shock. Hemorrhage was induced by withdrawing blood from the femoral artery at a rate of approximately 0.5 to 1 mL/min until a MAP of 35 mmHg was reached. This MAP was maintained for 30 min by further withdrawal of blood, if necessary. The hemorrhagic shock model used in the present study is a well-established rodent model of manageable pressure hemorrhage (Buehler et al. 2000; Gulati et al. 1997a; Gulati and Sen 1998). The volume of blood loss was about approximately 8.0 ml in each rat and was similar in various groups, amounting to approximately 40% of the total blood. Measured hematocrit levels were similar in various groups. The duration of blood withdrawal was approximately 15 minutes.
Experimental design. To determine the resuscitative effect of centhaquin on cardiovascular system and plasma cytokines in hemorrhagic shock, rats were randomly divided into five groups, Group 1: Sham control (Non-hemorrhaged) (n=5), Group 2: Hemorrhage with no resuscitation (n=5); Group 3: Hemorrhage followed by resuscitation with 3% hypertonic saline (vehicle) (n=5); Group 4: Hemorrhage followed by resuscitation with vehicle plus centhaquin (0.017 mg/kg) (n=5); and Group 5: Hemorrhage followed by resuscitation with vehicle plus centhaquin (0.05 mg/kg) (n=5). Resuscitation was started 30 min after induction of hemorrhagic shock as an intravenous infusion (1 mL/min) through femoral vein using an infusion pump (Harvard Apparatus Infusion/Withdrawal Pump, Millis, MA). The blood samples, for biochemical estimations, were collected at 30 minutes of resuscitation and cardiovascular parameters were monitored till 60 minutes after which the animal was sacrificed. The volume of resuscitative solution was kept equal to the volume of blood loss.
Estimation of ETA and ETB receptor expression. Expression of ETA and ETB receptors was determined using the western blotting technique (Briyal et al. 2015; Leonard and Gulati 2013) with some modifications. After completion of cardiovascular experiments animals were sacrificed and the organs (brain, heart, liver, lung, kidney and abdominal aorta) were immediately dissected out, flash frozen on dry ice, and stored at −80° C. for further analysis. The tissue was homogenized with 10×(w/v) RIPA lysis buffer (20 mM Tris-HCl pH 7.5, 120 mM NaCl, 1.0% TritonX-100, 1.0% sodium deoxycholate, 0.1% sodium dodecyl sulfate (SDS), 10% glycerol, 1 mM disodium ethylene diamine tetraacetic acid (EDTA), 1 mM ethylene glycol-bis(β-aminoethyl ether)-N,N,N′,N′-tetraacetic acid tetrasodium salt (EGTA), phosphatase inhibitors and Complete Mini Protease inhibitor cocktail tablet (Roche Diagnostics, Indianapolis, IN). Proteins were isolated in solubilized form and concentrations were measured by Folin-Ciocalteu's phenol reagent (Lowry et al. 1951). Solubilized protein (60 μg) was denatured in Laemmli sample buffer (Bio-Rad Laboratories, Hercules, CA), resolved on 10% sodium dodecyl sulfate-polyacrylamide gel electrophoresis (SDS-PAGE) and then transferred onto the nitrocellulose membrane followed by blocking the membrane with SuperBlock® Blocking Buffer in tris-buffered saline (TBS) (ThermoFisher Scientific, Hanover Park, IL). The membranes were washed three times with 1×TBS-Tween (TBST) and incubated with rabbit polyclonal anti-ETA receptor (ab85163, Abcam, Cambridge, MA, 1:1000) or anti-ETB receptor (ab117529, Abcam, Cambridge, MA, 1:1000) or mouse monoclonal anti-β-actin (a1978, Sigma-Aldrich, St. Louis, MO) antibodies, followed by horseradish peroxidase (HRP)-conjugated secondary antibodies goat anti-rabbit (sc2004, Santa Cruz Biotechnology, Dallas, TX, 1:2000) or goat anti-mouse (ab98693, Abcam, Cambridge, MA, 1:10,000) and visualized by SuperSignal® West Pico Chemiluminescent Substrate (ThermoFisher Scientific, Hanover Park, IL) using the ChemiDoc™ MP Imaging System (Bio-Rad Laboratories, Hercules, CA) and then analyzed using ImageJ (NIH) software.

[1] = Renal blood perfusion in hemorrhaged rats with norepinephrine infusion to maintain MAP at 70 mmHg; assay type: in vivo, rat
Method: Experimental design. To determine the resuscitative effect of centhaquin on cardiovascular system in hemorrhagic shock, rats were randomly divided into three groups: Hemorrhaged rats were administered 100% shed blood volume of either normal saline (vehicle); 100% shed blood volume of either normal saline plus centhaquin (0.01 mg/kg) or 100% shed blood volume of either normal saline plus centhaquin (0.10 mg/kg) during the first 10 minutes of resuscitation. Additional experiments were also carried out where the amount of norepinephrine (a very commonly used vasopressor during resuscitation) required to maintain MAP at 70 mmHg in normal saline (NS) or centhaquin (0.01 mg/kg) treated rats (volume equal to blood loss) was determined.
The femoral vein was cannulated for drug administration, femoral artery was cannulated for measuring mean arterial pressure (MAP) and a laser Doppler flow probe was placed in the renal medulla to measure blood perfusion. Induction of hemorrhagic shock was initiated by withdrawing blood to maintain the MAP at 35 mmHg for 30 minutes. Norepinephrine infusion was carried out to bring and maintain the MAP to 70 mmHg. The effect of centhaquin on cardiovascular functions were measured before the induction of shock, 30 minutes after shock (hemorrhage) and 15, 30, 45, 60, 75 and 90 minutes after resuscitation. […]

[2] = Phase II study of PMZ-2010 as resuscitative agent for hypovolemic shock (CTRI/2017/03/008184), interim analysis; assay type: in vivo, human
From the text: A prospective, multi-centric, randomized, double-blind, parallel, saline controlled phase II study of PMZ-2010 (centhaquin) as a resuscitative agent for hypovolemic shock due to excessive blood loss (CTRI/2017/03/008184) is being conducted. All subjects received standard treatment for shock (the type of treatment and care the enrolling institution would provide). Patients were randomly assigned to either control cohort (N=7) that received standard treatment along with normal saline or PMZ-2010 cohort (N=12) that received standard treatment along with PMZ-2010.

## Cc1cccc(N2CCN(CCc3ccc4ccccc4n3)CC2)c1 [centhaquin, 2-[2-(4-(3-methyphenyl)-1-piperazinyl)]ethyl-quinoline]
ETB receptors; centhaquin 0.017 mg/kg
  change in ETB receptor expression, abdominal aorta: 79.7%
  change in ETB receptor expression, kidney medulla: 76.6%
ETB receptors; centhaquin 0.05 mg/kg
  change in ETB receptor expression, abdominal aorta: 57.4%
  change in ETB receptor expression, kidney medulla: 69.4%
ETB receptors; dose not given
  change in ETB expression, abdominal aorta (summary): 79%
ETB receptors; hemorrhage and resuscitation
  ETB receptor expression in brain, heart, liver, lungs and kidney cortex: no change
ETB receptors; summary, not attenuated by saline
  shock-induced decrease (−34%) in ETB expression, renal medulla: completely attenuated
[1]; hemorrhaged female rats, till the end of experiment
  renal blood perfusion compared to vehicle control following resuscitation: improved
[1]; hemorrhaged male rats
  renal blood perfusion compared to vehicle control following resuscitation: improved
[2]; 48 hours after resuscitation, control 15.4%
  increase of diastolic blood pressure: 34.9%
[2]; baseline and discharge
  blood urea nitrogen versus control cohort: similar
[2]; baseline to discharge, control 25.35%
  decrease of serum creatinine level: 42.61%
[2]; baseline to discharge, control 40.00%
  increase of glomerular filtration rate: 81.52%
[2]; control 5.09±3.14 days
  time spent on ventilator: 0.85 ± 0.71 days
[2]; control 18.4±12.1 mg
  total amount of vasopressors needed in first 48 hours of resuscitation: 1.3 ± 1.2 mg
[2]; control 47%
  decrease of blood lactate levels: 63%
[2]; control 57.3%
  time in intensive care unit, of the total hospital stay: 39.3%
[2]; first 48 hours, 12 patients
  Total Number of doses administered: 13 doses in 12 patients
[2]; first 48 hours, Mean ± SEM
  Number of doses per patient: 1.08 ± 0.08
[2]; in vivo
  increase in glomerular filtration rate, more compared to standard treatment: 41.52%
  reduction of serum creatinine levels, more compared to standard treatment: 17.26%
  total blood products administered in the first 48 hours, less than control: 23.4%
  total fluids needed in the first 48 hours of resuscitation, less than control: 19.9%
[2]; patients, N=12
  adverse events (primary endpoint of safety): no adverse event was reported
[2]; systolic and diastolic, baseline to discharge (FIG. 9)
  blood pressure increase versus control cohort: more than that observed in control cohort
[2]; until 48 hours after resuscitation, control 34.5%
  increase of systolic blood pressure from baseline: 45.2%

From patent publication US12629406B2, “Alterations in endothelin receptors following hemorrhage and resuscitation by centhaquin” (MIDWESTERN UNIVERSITY, priority 2018, dated 2026)
